Data as given in patent publication US8653260B2, “Hydroxymethyl pyrrolidines as beta 3 adrenergic receptor agonists” (Merck Sharp & Dohme Corp., priority 2008, dated 2014).
Read-outs that look alike come from different tables or passages of the source. Each block holds one compound with its values, some of them ahead of it.

Columns and labels:
[1] = molecular target: T1, human β3 adrenergic receptor (Homo sapiens, UniProt P13945); test: Functional assay: cAMP production (LANCE) in CHO cells expressing β3 adrenergic receptor; type: cell-based
T1 construct: expressed in transfected cells; host or cells: CHO cells, stably transfected
T1 sequence (P13945 whole entry): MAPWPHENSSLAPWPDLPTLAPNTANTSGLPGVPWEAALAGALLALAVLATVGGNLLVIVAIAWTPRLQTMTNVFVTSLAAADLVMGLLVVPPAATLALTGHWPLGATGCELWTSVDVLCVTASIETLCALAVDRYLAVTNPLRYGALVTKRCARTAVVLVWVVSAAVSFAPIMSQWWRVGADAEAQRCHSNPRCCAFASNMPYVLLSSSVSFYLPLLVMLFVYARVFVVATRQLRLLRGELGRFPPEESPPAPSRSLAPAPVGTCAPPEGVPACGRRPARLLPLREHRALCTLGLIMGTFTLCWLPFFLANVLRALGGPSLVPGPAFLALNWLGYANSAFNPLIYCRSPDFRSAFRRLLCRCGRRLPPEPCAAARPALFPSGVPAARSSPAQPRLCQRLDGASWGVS
Procedure: Chinese hamster ovary (CHO) cells, stably transfected with the cloned β-adrenergic receptor (β1, β2 or β3) are harvested after 3 days of subculturing. Harvesting of cells is done with Enzyme-free Dissociation Media (Specialty Media). Cells are then counted and resuspended in assay buffer (Hank's Balanced salt solution supplemented with 5 mM HEPES, 0.1% BSA) containing a phosphodiesterase inhibitor (IBMX, 0.6 mM). The reaction is initiated by mixing 6,000 cells in 6 μL with 6 μL Alexa Fluor labeled cAMP antibody (LANCE™ kit) which is then added to an assay well containing 12 μL of compound (diluted in assay buffer to 2× final concentration). The reaction proceeds for 30 min at room temperature and is terminated by the addition of 24 μL detection buffer (LANCE™ kit). The assay plate is then incubated for 1 h at room temperature and time-resolved fluorescence measured on a Perkin Elmer Envision reader or equivalent. The unknown cAMP level is determined by comparing fluorescence levels to a cAMP standard curve.
The non-selective, full agonist β-adrenergic ligand isoproterenol is used at all three receptors to determine maximal stimulation. […] Data are analyzed using Microsoft Excel and Graphpad Prism or an internally developed data analysis software package.

rats = conditions: intravenous administration, cited from earlier work
[2] = cAMP production, CHO cells, given as a range, read-out: human β3 functional activity

Compound: Cc1nc(CC(=O)Nc2ccc(C[C@@H]3CC[C@H]([C@H](O)c4ccccc4)N3)cc2)c(C)s1 [Example 10]
EC50 ([1]; Table 4, text b832: human β3 functional activity, read-out: Human β3 Binding): 1 to 10 nM

Compound: C[C@H](Cc1ccc2c(c1)OC(C(=O)[O-])(C(=O)[O-])O2)NC[C@H](O)c1cccc(Cl)c1.[Na+].[Na+] [CL316243]
bladder capacity (rats; cystometric studies): increases bladder capacity
bladder pressure (rats): reduces bladder pressure

Compound: Nc1nc2c(s1)CCC2C(=O)Nc1ccc(CC2CCC(C(O)c3ccc(F)cc3)N2)cc1 (single isomer, unassigned) [Example 308]
EC50 ([1]; human β3 functional activity, given as ranges, read-out: Human β3 Functional): 1 to 10 nM

Second part, the compound after the results:

EC50 [1, 2]: < 1 nM
Compound: O=C(Nc1ccc(C[C@@H]2CC[C@H]([C@H](O)c3ccccc3)N2)cc1)C1CCc2cccc(=O)n21 (single isomer, unassigned) [Example 102]

EC50 [1, 2]: 1 to 10 nM
Compound: O=C(Nc1ccc(C[C@@H]2CC[C@H]([C@H](O)c3ccccc3)N2)cc1)[C@@H]1CCc2cccc(=O)n21 (single isomer, unassigned) [Example 101]

EC50 ([1]; Table 5, read-out: Human β3 Functional): 1 to 10 nM
Compound: CC(C(=O)Nc1ccc(C[C@@H]2CC[C@H]([C@H](O)c3ccccc3)N2)cc1)n1ccccc1=O (single isomer, unassigned) [Example 203]
